What was measured:
Assay in all cases: relative viability (nuclei count vs DMSO), 5 days (fraction); higher = more cells survive
[1] = system: A-427
Procedure, shortened: (§1)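 Relative viability divides the nuclei count in treated wells by that in vehicle wells. Lung cancer cell lines were seeded in 1536-well plates, dosed by pin tool the next day, and fixed and stained after 5 days in one step with final 0.05% Triton X-100, 1% formaldehyde and 1 ug/ml Hoechst. Dosing was a single drug or a fixed anchor-drug dose plus five library-drug doses (not always all listed) in √10 steps, and values are medians of duplicate plates imaged at 4×.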

[2] = system: COR-L 105
Procedure, shortened: as §1

[3] = system: ChaGo-K-1
Procedure, shortened: as §1

[4] = system: EKVX
Procedure, shortened: as §1

[5] = system: EMC-BAC-2
Procedure, shortened: as §1

[6] = system: H3255
Procedure, shortened: as §1

[7] = system: HCC-366
Procedure, shortened: as §1

[8] = system: LK-2
Procedure, shortened: as §1

[9] = system: LOU-NH91
Procedure, shortened: as §1

[10] = system: NCI-H1563
Procedure, shortened: as §1

[11] = system: NCI-H1666
Procedure, shortened: as §1

[12] = system: NCI-H1734
Procedure, shortened: as §1

[13] = system: NCI-H1755
Procedure, shortened: as §1

[14] = system: NCI-H1975
Procedure, shortened: as §1

[15] = system: NCI-H2170
Procedure, shortened: as §1

[16] = system: NCI-H23
Procedure, shortened: as §1

[17] = system: NCI-H441
Procedure, shortened: as §1

[18] = system: NCI-H520
Procedure, shortened: as §1

[19] = system: NCI-H596
Procedure, shortened: as §1

[20] = system: PC-3 [JPC-3]
Procedure, shortened: as §1

[21] = system: SK-MES-1
Procedure, shortened: as §1

[22] = system: SW 900
Procedure, shortened: as §1

With `Nc1ccn([C@@H]2O[C@H](CO)[C@@H](O)[C@@H]2O)c(=O)n1` [Cytarabine] + COc1cccc2cc(-c3nc([C@H]4CC[C@H](C(=O)O)CC4)n4ncnc(N)c34)[nH]c12 [OSI-027] (partner 0.5 µM) the relative viability ([1]; first compound 0.005 µM) was 0.4, the relative viability ([1]; first compound 0.01581 µM) was 0.259 and the relative viability ([1]; first compound 0.05 µM) was 0.275. For the same compound, the relative viability ([1]; first compound 0.1581 µM) was 0.16, the relative viability ([1]; first compound 0.5 µM) was 0.177 and the relative viability ([2]; first compound 0.005 µM) was 0.601. It also gave a relative viability ([2]; first compound 0.01581 µM) of 0.587, a relative viability ([2]; first compound 0.05 µM) of 0.586 and a relative viability ([2]; first compound 0.1581 µM) of 0.354. For the same compound, the relative viability ([2]; first compound 0.5 µM) was 0.224, the relative viability ([3]; first compound 0.005 µM) was 0.465 and the relative viability ([3]; first compound 0.01581 µM) was 0.353. For the same compound, the relative viability ([3]; first compound 0.05 µM) was 0.247, the relative viability ([3]; first compound 0.1581 µM) was 0.165 and the relative viability ([3]; first compound 0.5 µM) was 0.212. It also gave a relative viability ([4]; first compound 0.005 µM) of 0.573, a relative viability ([4]; first compound 0.01581 µM) of 0.499 and a relative viability ([4]; first compound 0.05 µM) of 0.635. The relative viability ([4]; first compound 0.1581 µM) was 0.37, the relative viability ([4]; first compound 0.5 µM) was 0.22 and the relative viability ([5]; first compound 0.005 µM) was 0.413. It also gave a relative viability ([5]; first compound 0.01581 µM) of 0.353, a relative viability ([5]; first compound 0.05 µM) of 0.312 and a relative viability ([5]; first compound 0.1581 µM) of 0.27. It also gave a relative viability ([5]; first compound 0.5 µM) of 0.22, a relative viability ([6]; first compound 0.005 µM) of 0.521 and a relative viability ([6]; first compound 0.01581 µM) of 0.579. It also gave a relative viability ([6]; first compound 0.05 µM) of 0.53, a relative viability ([6]; first compound 0.1581 µM) of 0.429 and a relative viability ([6]; first compound 0.5 µM) of 0.453. It also gave a relative viability ([7]; first compound 0.005 µM) of 0.823, a relative viability ([7]; first compound 0.01581 µM) of 0.61 and a relative viability ([7]; first compound 0.05 µM) of 0.558. The relative viability ([7]; first compound 0.1581 µM) was 0.213, the relative viability ([7]; first compound 0.5 µM) was 0.06 and the relative viability ([8]; first compound 0.005 µM) was 0.194. The relative viability ([8]; first compound 0.01581 µM) was 0.175, the relative viability ([8]; first compound 0.05 µM) was 0.205 and the relative viability ([8]; first compound 0.1581 µM) was 0.156. The relative viability ([8]; first compound 0.5 µM) was 0.154, the relative viability ([9]; first compound 0.005 µM) was 0.664 and the relative viability ([9]; first compound 0.01581 µM) was 0.739. It also gave a relative viability ([9]; first compound 0.05 µM) of 0.597, a relative viability ([9]; first compound 0.1581 µM) of 0.486 and a relative viability ([9]; first compound 0.5 µM) of 0.585. It also gave a relative viability ([10]; first compound 0.005 µM) of 0.691, a relative viability ([10]; first compound 0.01581 µM) of 0.797 and a relative viability ([10]; first compound 0.05 µM) of 0.773. It also gave a relative viability ([10]; first compound 0.1581 µM) of 0.583, a relative viability ([10]; first compound 0.5 µM) of 0.628 and a relative viability ([11]; first compound 0.005 µM) of 0.81. The relative viability ([11]; first compound 0.01581 µM) was 0.729, the relative viability ([11]; first compound 0.05 µM) was 0.798 and the relative viability ([11]; first compound 0.1581 µM) was 0.455. The relative viability ([11]; first compound 0.5 µM) was 0.511, the relative viability ([12]; first compound 0.005 µM) was 0.355 and the relative viability ([12]; first compound 0.01581 µM) was 0.285. It also gave a relative viability ([12]; first compound 0.05 µM) of 0.222, a relative viability ([12]; first compound 0.1581 µM) of 0.133 and a relative viability ([12]; first compound 0.5 µM) of 0.13. For the same compound, the relative viability ([13]; first compound 0.005 µM) was 0.574, the relative viability ([13]; first compound 0.01581 µM) was 0.578 and the relative viability ([13]; first compound 0.05 µM) was 0.561. The relative viability ([13]; first compound 0.1581 µM) was 0.318, the relative viability ([13]; first compound 0.5 µM) was 0.309 and the relative viability ([14]; first compound 0.005 µM) was 0.532. The relative viability ([14]; first compound 0.01581 µM) was 0.775, the relative viability ([14]; first compound 0.05 µM) was 0.917 and the relative viability ([14]; first compound 0.1581 µM) was 0.6. The relative viability ([14]; first compound 0.5 µM) was 0.315, the relative viability ([15]; first compound 0.005 µM) was 0.543 and the relative viability ([15]; first compound 0.01581 µM) was 0.513. The relative viability ([15]; first compound 0.05 µM) was 0.387, the relative viability ([15]; first compound 0.1581 µM) was 0.303 and the relative viability ([15]; first compound 0.5 µM) was 0.208. The relative viability ([16]; first compound 0.005 µM) was 0.582, the relative viability ([16]; first compound 0.01581 µM) was 0.502 and the relative viability ([16]; first compound 0.05 µM) was 0.507. It also gave a relative viability ([16]; first compound 0.1581 µM) of 0.272, a relative viability ([16]; first compound 0.5 µM) of 0.161 and a relative viability ([17]; first compound 0.005 µM) of 0.629. For the same compound, the relative viability ([17]; first compound 0.01581 µM) was 0.638, the relative viability ([17]; first compound 0.05 µM) was 0.617 and the relative viability ([17]; first compound 0.1581 µM) was 0.422. The relative viability ([17]; first compound 0.5 µM) was 0.291, the relative viability ([18]; first compound 0.005 µM) was 0.25 and the relative viability ([18]; first compound 0.01581 µM) was 0.262. It also gave a relative viability ([18]; first compound 0.05 µM) of 0.33, a relative viability ([18]; first compound 0.1581 µM) of 0.212 and a relative viability ([18]; first compound 0.5 µM) of 0.16. It also gave a relative viability ([19]; first compound 0.005 µM) of 0.682, a relative viability ([19]; first compound 0.01581 µM) of 0.702 and a relative viability ([19]; first compound 0.05 µM) of 0.592. The relative viability ([19]; first compound 0.1581 µM) was 0.418, the relative viability ([19]; first compound 0.5 µM) was 0.317 and the relative viability ([20]; first compound 0.005 µM) was 0.607. For the same compound, the relative viability ([20]; first compound 0.01581 µM) was 0.721, the relative viability ([20]; first compound 0.05 µM) was 0.727 and the relative viability ([20]; first compound 0.1581 µM) was 0.499. It also gave a relative viability ([20]; first compound 0.5 µM) of 0.454, a relative viability ([21]; first compound 0.005 µM) of 0.343 and a relative viability ([21]; first compound 0.01581 µM) of 0.282. The relative viability ([21]; first compound 0.05 µM) was 0.18, the relative viability ([21]; first compound 0.1581 µM) was 0.297 and the relative viability ([21]; first compound 0.5 µM) was 0.267. For the same compound, the relative viability ([22]; first compound 0.005 µM) was 0.396, the relative viability ([22]; first compound 0.01581 µM) was 0.34 and the relative viability ([22]; first compound 0.05 µM) was 0.335. The relative viability ([22]; first compound 0.1581 µM) was 0.145 and the relative viability ([22]; first compound 0.5 µM) was 0.136.

— the supplement of paper PMC10307832
